Assay results as given in the NIST ThermoML archive (doi:10.1021/je700428f).

Experiments:
[1] = xn = mol fraction of the nth substance listed; settings: 101 kPa, Liquid
[2] = 101 kPa, Liquid; for viscosity: Capillary tube (Ostwald / Ubbelohde) method

COC(C)(C)C [2-methoxy-2-methylpropane] + CCCCCCCCC
[1], x1 = 1
Settings	mass density [kg/m3]
273.15 K	761.34
278.15 K	756.14
283.15 K	751.02
288.15 K	745.85
293.15 K	740.65
298.15 K	735.4
303.15 K	730.1
308.15 K	724.82
313.15 K	719.42
318.15 K	713.96

CCCCCCCCCC [decane]
[2]
Settings	mass density [kg/m3]
273.15 K	745.374
278.15 K	741.257
283.15 K	737.502
288.15 K	733.733
293.15 K	729.958
298.15 K	726.174
303.15 K	722.377
308.15 K	718.573
313.15 K	714.753
318.15 K	710.92
323.15 K	707.074
328.15 K	703.213
333.15 K	699.334
338.15 K	695.439
343.15 K	691.522
348.15 K	687.587
353.15 K	683.631
358.15 K	679.651
363.15 K	675.648

COC(C)(C)C [2-methoxy-2-methylpropane]
[2]
Settings	mass density [kg/m3]
273.15 K	761.34
278.15 K	756.14
283.15 K	751.02
288.15 K	745.85
293.15 K	740.65
298.15 K	735.4
303.15 K	730.1
308.15 K	724.82
313.15 K	719.42
318.15 K	713.96

CCCCCCCCC [nonane]
[2]
Settings	mass density [kg/m3]	viscosity [mPa·s]
273.15 K	733.184	0.972
278.15 K	729.335	0.896
283.15 K	725.473	0.828
288.15 K	721.603	0.768
293.15 K	717.725	0.716
298.15 K	713.834	0.669
303.15 K	709.929	0.628
308.15 K	706.011	0.59
313.15 K	702.076	0.555
318.15 K	698.124	0.522
323.15 K	694.151	0.493
328.15 K	690.165	0.466
333.15 K	686.154	0.442
338.15 K	682.116	0.42
343.15 K	678.06	0.399
348.15 K	673.979	0.38
353.15 K	669.872	0.362
358.15 K	665.73	0.346
363.15 K	661.557	–

CCCCCCCCCC [decane] + COC(C)(C)C
[1], x2 = 0
Settings	mass density [kg/m3]
273.15 K	745.374
278.15 K	741.257
283.15 K	737.502
288.15 K	733.733
293.15 K	729.958
298.15 K	726.174
303.15 K	722.377
308.15 K	718.573
313.15 K	714.753
318.15 K	710.92
323.15 K	707.074
328.15 K	703.213
333.15 K	699.334
338.15 K	695.439
343.15 K	691.522
348.15 K	687.587
353.15 K	683.631
358.15 K	679.651
363.15 K	675.648
